One test has as its target T1, Human Factor XIIa (Homo sapiens, UniProt P00748).
T1 construct: Proteolytic cleavage of FXII to heavy and light chains of FXIIa dramatically increases catalytic activity; purchased Enzyme Research Laboratories
T1 sequence (P00748 373-615 limits assumed): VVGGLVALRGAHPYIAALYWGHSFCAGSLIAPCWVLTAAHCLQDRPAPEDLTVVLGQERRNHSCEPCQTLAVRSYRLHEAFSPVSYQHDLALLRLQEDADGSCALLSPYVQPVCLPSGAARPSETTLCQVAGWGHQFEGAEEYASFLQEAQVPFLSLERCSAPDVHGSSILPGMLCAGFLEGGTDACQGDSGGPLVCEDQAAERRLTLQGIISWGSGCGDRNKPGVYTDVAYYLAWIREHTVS
T1 sequence (P00748 20-372 partner limits assumed): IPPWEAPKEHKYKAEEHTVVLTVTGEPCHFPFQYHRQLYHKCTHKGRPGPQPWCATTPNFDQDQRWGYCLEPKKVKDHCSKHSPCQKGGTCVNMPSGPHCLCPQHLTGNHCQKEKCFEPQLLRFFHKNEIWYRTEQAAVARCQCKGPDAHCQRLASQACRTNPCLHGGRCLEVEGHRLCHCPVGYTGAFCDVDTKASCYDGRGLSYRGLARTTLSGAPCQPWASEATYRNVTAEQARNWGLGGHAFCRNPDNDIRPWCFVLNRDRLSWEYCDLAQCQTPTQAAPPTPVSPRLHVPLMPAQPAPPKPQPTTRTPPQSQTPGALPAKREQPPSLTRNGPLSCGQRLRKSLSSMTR
The test is described as follows: Determination of FXIIa inhibition (fluorogenic substrate H-DPro-Phe-Arg-AFC, IC50 assay). Type of test: biochemical. To be noted: substrate at Km concentration, 25° C.; category scale; read-out: Human FXII IC50 (nm). The procedure, abridged:
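Human FXIIa incubated at 25° C. with fluorogenic H-DPro-Phe-Arg-AFC at its Km concentration plus varying compound levels. Linear fluorescence increase over 5 min taken as % activity; IC50 is concentration halving uninhibited activity.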

A further test has as its target T2, Plasma Kallikrein (Homo sapiens, UniProt P03952).
T2 construct: FXIIa converts plasma prekallikrein (PK) to plasma kallikrein (PKa)
The test is described as follows: Related protease inhibition: Plasma Kallikrein (fluorogenic substrate at Km). It counts as biochemical. Conditions: class symbols per Table 18, read-out: IC50 (human PKal). How it is done: In vitro inhibition of related proteases was determined using an IC50 assay based on standard literature methods (see e.g. Shori et al., Biochem. Pharmacol., 1992, 43, 1209; Bouckaert et al., European Journal of Medicinal Chemistry 110 (2016) 181). Human serine protease enzyme Plasma Kallikrein, KLK1, FXa, Plasmin, Thrombin and Trypsin were assayed for enzymatic activity using an appropriate fluorogenic substrate at Km concentration, FXIa at fixed substrate concentration of 100 μM and various concentrations of the test compound. Protease activity was measured by monitoring the accumulation of liberated fluorescence from the substrate over 5 min at 25° C. The linear rate of fluorescence increase per minute was expressed as percentage (%) activity. IC50 values were calculated as the concentration of inhibitor giving 50% inhibition of the uninhibited enzyme activity (100%).

T2 sequence (P03952 391-638 limits assumed): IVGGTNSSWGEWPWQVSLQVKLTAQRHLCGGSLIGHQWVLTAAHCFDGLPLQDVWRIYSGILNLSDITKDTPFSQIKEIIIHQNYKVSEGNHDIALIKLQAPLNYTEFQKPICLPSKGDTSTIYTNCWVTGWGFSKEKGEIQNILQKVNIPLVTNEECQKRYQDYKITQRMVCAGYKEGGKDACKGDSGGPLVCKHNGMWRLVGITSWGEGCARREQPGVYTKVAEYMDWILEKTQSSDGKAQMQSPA
T2 sequence (P03952 20-390 partner limits assumed): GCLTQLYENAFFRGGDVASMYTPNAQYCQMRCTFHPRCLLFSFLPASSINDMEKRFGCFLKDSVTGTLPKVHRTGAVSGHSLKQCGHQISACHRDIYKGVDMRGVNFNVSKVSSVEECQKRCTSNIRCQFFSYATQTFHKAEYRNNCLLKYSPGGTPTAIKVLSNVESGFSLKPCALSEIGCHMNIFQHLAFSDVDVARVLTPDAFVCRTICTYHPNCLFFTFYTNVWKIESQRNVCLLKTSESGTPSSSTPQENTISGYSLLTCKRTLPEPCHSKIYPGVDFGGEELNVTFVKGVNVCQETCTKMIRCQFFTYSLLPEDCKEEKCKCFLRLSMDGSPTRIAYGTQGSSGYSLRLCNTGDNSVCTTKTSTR

With `Cn1cccc(OCC23CCOC(CNc4cccc5c(N)nccc45)(C2)C3)c1=O` [Example 10911, 3-((1-(((1-aminoisoquinolin-5-yl)amino)methyl)-2-oxabicyclo[3.1.1]heptan-5-yl)methoxy)-1-methylpyridin-2(1H)-one], the IC50 on Human Factor XIIa is 3 to 10 µM; at Plasma Kallikrein it was > 40 µM.
For `Clc1cc2c(NCC34CC(COc5ccc6nccn6c5)(CCO3)C4)ccnc2[nH]1` [Example 10909, 2-Chloro-N-[[5-(imidazo[1,2-a]pyridin-6-yloxymethyl)-2-oxabicyclo[3.1.1]heptan-1-yl]methyl]-1H-pyrrolo[2,3-b]pyridin-4-amine] the same measures were 1 to 3 µM and > 40 µM.
Taken in the same sequence, the figures for `Nc1nccc2c(N3CC4(CCC4OCc4ccn5ccnc5c4)C3)cccc12` (centres unmarked) [Example 9001, 5-(5-(imidazo[1,2-a]pyridin-7-ylmethoxy)-2-azaspiro[3.3]heptan-2-yl)isoquinolin-1-amine] were 10 to 40 µM and > 40 µM.
As for `Nc1nccc2c(NCC34CN(C(=O)OCc5ccccc5)C(C(=O)N5CCn6c(nnc6C(F)(F)F)C5)(C3)C4)cccc12` [Example 13002, benzyl 4-(((1-aminoisoquinolin-5-yl)amino)methyl)-1-(3-(trifluoromethyl)-5,6,7,8-tetrahydro-[1,2,4]triazolo[4,3-a]pyrazine-7-carbonyl)-2-azabicyclo[2.1.1]hexane-2-carboxylate], the half-inhibitory concentration (IC50) on Human Factor XIIa is 10 to 40 µM; on Plasma Kallikrein it was > 40 µM.
Taken in the same sequence, the figures for `Nc1nccc2c(NCC34COC(COc5ccc6ncnn6c5)(C3)C4)cccc12` [Example 2210, N5-((1-(([1,2,4]triazolo[1,5-a]pyridin-6-yloxy)methyl)-2-oxabicyclo[2.1.1]hexan-4-yl)methyl)isoquinoline-1,5-diamine] were 1 to 3 µM and > 40 µM.
Taken in the same sequence, the figures for `Nc1nccc2c(N3CCC4(CC(OCc5ccn6ccnc6c5)C4)C3)cccc12` (stereo not drawn) [Example 8804, 5-(cis*-2-(imidazo[1,2-a]pyridin-7-ylmethoxy)-6-azaspiro[3.4]octan-6-yl)isoquinolin-1-amine] were 1 to 3 µM and > 40 µM.
Take `Nc1nccc2c(NC34CC(COc5ccc6nccn6c5)(C3)C4)cccc12` [Example 1131, N5-(3-((imidazo[1,2-a]pyridin-6-yloxy)methyl)bicyclo[1.1.1]pentan-1-yl)isoquinoline-1,5-diamine]: the concentration for half-maximal inhibition (IC50) is 10 to 40 µM at Human Factor XIIa and > 40 µM at Plasma Kallikrein.
`Nc1nccc2c(N3CC4(CCC4OCc4ccn5ccnc5c4)C3)cccc12` (single isomer, unassigned) [Example 9003, (S*)-5-(5-(imidazo[1,2-a]pyridin-7-ylmethoxy)-2-azaspiro[3.3]heptan-2-yl)isoquinolin-1-amine]: the IC50 on Human Factor XIIa was 10 to 40 µM; on Plasma Kallikrein, > 40 µM.
Taken in the same sequence, the figures for `Nc1nccc2c(NCC34COC(COc5ccn6ncnc6c5)(C3)C4)cccc12` [Example 2207, N5-((1-(([1,2,4]triazolo[1,5-a]pyridin-7-yloxy)methyl)-2-oxabicyclo[2.1.1]hexan-4-yl)methyl)isoquinoline-1,5-diamine] were 1 to 3 µM and > 40 µM.
Take `Clc1c[nH]c2ncc(NCC34CC(COc5ccn6ccnc6c5)(C3)C4)cc12` [Example 1129, 3-chloro-N-((3-((imidazo[1,2-a]pyridin-7-yloxy)methyl)bicyclo[1.1.1]pentan-1-yl)methyl)-1H-pyrrolo[2,3-b]pyridin-5-amine]: on Plasma Kallikrein, the IC50 was > 100 µM.
As for `Cn1ccc(OCC23CC(CNc4cccc5c(N)nccc45)(CN2C(=O)CCc2cccnc2)C3)cc1=O` [Example 13010, 4-((4-(((1-aminoisoquinolin-5-yl)amino)methyl)-2-(3-(pyridin-3-yl)propanoyl)-2-azabicyclo[2.1.1]hexan-1-yl)methoxy)-1-methylpyridin-2(1H)-one], at Human Factor XIIa, the half-inhibitory concentration (IC50) lay within 0.1 to 0.3 µM.
As to `CCn1c(C)cc(OCC23CCOC(CNc4cccc5c(N)nccc45)(C2)C3)cc1=O` [Example 10964, 4-((1-(((1-aminoisoquinolin-5-yl)amino)methyl)-2-oxabicyclo[3.1.1]heptan-5-yl)methoxy)-1-ethyl-6-methylpyridin-2(1H)-one], the IC50 on Human Factor XIIa was 0.01 to 0.1 µM.
On the same count and under the same terms, with `Cn1ccc(OCC23CN(C(=O)NCc4ccccc4)C(CNc4c(F)ccc5c(N)nccc45)(C2)C3)cc1=O` [Example 12072, 1-(((1-amino-6-fluoroisoquinolin-5-yl)amino)methyl)-N-benzyl-4-(((1-methyl-2-oxo-1,2-dihydropyridin-4-yl)oxy)methyl)-2-azabicyclo[2.1.1]hexane-2-carboxamide] the figure was 0.3 to 1 µM; with `Nc1nccc2c(NCC34CC(COc5ccc6c(c5)C(=O)NC6)(CO3)C4)cccc12` [Example 6642, 6-((1-(((1-aminoisoquinolin-5-yl)amino)methyl)-2-oxabicyclo[2.1.1]hexan-4-yl)methoxy)isoindolin-1-one], 0.1 to 0.3 µM.
Consider `Cn1ccc(OCC23CN(C(=O)NCc4ccc5occc5c4)C(CNc4cccc5c(N)nccc45)(C2)C3)cc1=O` [Example 12070, 1-(((1-aminoisoquinolin-5-yl)amino)methyl)-N-(benzofuran-5-ylmethyl)-4-(((1-methyl-2-oxo-1,2-dihydropyridin-4-yl)oxy)methyl)-2-azabicyclo[2.1.1]hexane-2-carboxamide], for which, at Human Factor XIIa, the IC50 is 0.01 to 0.1 µM.
Same read-out and setting: the same measure for `Cn1ccc(OCC23CN(C(=O)CCc4cccc(OC(F)F)c4)C(CNc4cccc5c(N)nccc45)(C2)C3)cc1=O` [Example 12056, 4-((1-(((1-aminoisoquinolin-5-yl)amino)methyl)-2-(3-(3-(difluoromethoxy)phenyl)propanoyl)-2-azabicyclo[2.1.1]hexan-4-yl)methoxy)-1-methylpyridin-2(1H)-one]: 0.01 to 0.1 µM.
On the same count and under the same terms, with `Cn1ccc(OCC23CN(C(=O)OCc4ccccn4)C(CNc4cccc5c(N)nccc45)(C2)C3)cc1=O` [Example 12021, pyridin-2-ylmethyl 1-(((1-aminoisoquinolin-5-yl)amino)methyl)-4-(((1-methyl-2-oxo-1,2-dihydropyridin-4-yl)oxy)methyl)-2-azabicyclo[2.1.1]hexane-2-carboxylate] the figure was 0.01 to 0.1 µM.
On to `CC(C)c1cc(OCC23CCOC(CNc4cccc5c(N)nccc45)(C2)C3)ncn1` [Example 10948, N5-((5-(((6-isopropylpyrimidin-4-yl)oxy)methyl)-2-oxabicyclo[3.1.1]heptan-1-yl)methyl)isoquinoline-1,5-diamine], for which, at Human Factor XIIa, the 50% inhibitory concentration (IC50) was in the range of 1 to 3 µM.
On the same count and under the same terms, with `Nc1nccc2c(NCC34CC(COc5ccc6c(c5)CCNC6=O)(CCO3)C4)cccc12` [Example 10938, 6-((1-(((1-aminoisoquinolin-5-yl)amino)methyl)-2-oxabicyclo[3.1.1]heptan-5-yl)methoxy)-3,4-dihydroisoquinolin-1(2H)-one] the figure was 0.3 to 1 µM.
On the same count and under the same terms, the same measure for `Cn1ccc(OCC23CC(CNc4cccc5c(N)nccc45)(CN2)C3)cc1=O` [Example 13007, 4-((4-(((1-aminoisoquinolin-5-yl)amino)methyl)-2-azabicyclo[2.1.1]hexan-1-yl)methoxy)-1-methylpyridin-2(1H)-one]: 0.1 to 0.3 µM; for `Cn1ccc(OCC23CN(C(=O)CCc4cccc5cnccc45)C(CNc4cccc5c(N)nccc45)(C2)C3)cc1=O` [Example 12047, 4-((1-(((1-aminoisoquinolin-5-yl)amino)methyl)-2-(3-(isoquinolin-5-yl)propanoyl)-2-azabicyclo[2.1.1]hexan-4-yl)methoxy)-1-methylpyridin-2(1H)-one]: 0.01 to 0.1 µM; for `Cc1cc(OCC23CCOC(CNc4cccc5c(N)nccc45)(C2)C3)ncn1` [Example 10971, N5-((5-(((6-methylpyrimidin-4-yl)oxy)methyl)-2-oxabicyclo[3.1.1]heptan-1-yl)methyl)isoquinoline-1,5-diamine]: 0.3 to 1 µM.
On the same count and under the same terms, the same measure for `Cn1ccc(OCC23CC(CNc4cccc5c(N)nccc45)(CN2C(=O)OC(C)(C)C)C3)cc1=O` [Example 13005, tert-butyl 4-(((1-aminoisoquinolin-5-yl)amino)methyl)-1-(((1-methyl-2-oxo-1,2-dihydropyridin-4-yl)oxy)methyl)-2-azabicyclo[2.1.1]hexane-2-carboxylate]: 0.1 to 0.3 µM.

Values taken from patent US20240327412A1, “FACTOR XIIA INHIBITORS” (KALVISTA PHARMACEUTICALS LIMITED, priority 2021, published 2024).
